Experiment [1] concerns BANK-induced bladder contraction. The experiment in a line: BANK-induced bladder contraction in anesthetized guinea pigs. It is filed as in vivo, guinea pig. To be noted: for Inhibition of BANK-mediated GP bladder contraction (% Inhibition mediated by 52 nM/kg administered orally): anesthetized female guinea pigs, 52 nM/kg orally by gavage 1 hr before BANK 3 nmol/kg iv, mean ± S.E.M. Here is the method: BANK-Induced Bladder Contraction in Anesthetized Guinea Pigs:
Female guinea pigs (300-450 g) were anesthetized by intramuscular administration of ketamine/xylazine mixture (3/10 mg/kg, respectively). The jugular vein was catheterized and the distal end of the catheter connected to a syringe for administration of compound where appropriate. Subsequently, the bladder was exposed through a midline abdominal incision, the ureters tied with 4-0 silk suture approximately 2 cm above the bladder, and cut above the ligature to allow drainage from the kidneys. Cannula were passed through the proximal urethra and bladder sphincter into the bladder lumen. The bladder was manually emptied, infused with 0.3 mL saline, and the catheter attached to a Gould p23 ID pressure transducer for recording changes in bladder pressure. An equilibration period of approximately 15 min was allowed for stabilization of the animals following surgical preparation. Thiorphan (10 mg/kg iv) was administered 15 minutes before agonist exposure to inhibit neutral endopeptidase 3.4.24.11.
The response was allowed to decay during a 15 min equilibration period before intravenous administration of test compound ([…], 5% PEG 400-saline vehicle). An additional 15 min equilibration period elapsed before administration of an equivalent dose of BANK was repeated. Preliminary studies were performed to establish equivalence of bladder contractile responses to multiple administrations of BANK. Effects were calculated as the percentage difference between the response to BANK in the presence and absence of test compounds.
To establish the oral effect of test compounds, animals were administered the test compounds (52 nmol/kg, 5% PEG 400-saline vehicle) by gavage 1 hr before administration of BANK. This was followed by intravenous administration of BANK (3 nmol/kg). Bladder contraction occurring in the presence or absence of test compound was recorded as an increase in intravesical bladder pressure on a Grass 7D Polygraph and expressed as percent inhibition of the BANK-mediated effect. Duration of action studies were performed following oral administration of test compounds ([…], 5% PEG 400-saline vehicle) at different times prior to administration of BANK. Responses were calculated as the percentage difference between the response to BANK in the presence of test compound compared with sham-treated controls. For all studies, each animal was administered a single dose of test compound. Experimental results were expressed as the mean plus or minus the Standard Error of the Mean (±S.E.M) percentage change from basal level.
The ability of compounds disclosed herein to inhibit bladder contractions induced with BANK is shown by the results disclosed in Table 1.

Another experiment has as its target T1, human NK1 receptors (Homo sapiens, UniProt P25103).
T1 construct: expressed in transfected cells; host or cells: MEL cells (murine erythroleukemia), membranes
The experiment in a line: Receptor binding assay with [3H]SP in membranes of MEL cells expressing cloned human NK1 receptors. The following applies: cloned hNK1 in MEL cell membranes; for Ki: read-out: hNK1 (Ki expressed as -Log Molar) (converted). The procedure: (§1) Preparation of Membranes from MEL Cells Transfected with Cloned Human NK1 or NK2 receptors:
(§2) The cloning of the human lung NK1 and NK2 receptors was achieved as described by Hopkins, et al., Biochem. Biophys. Res. Commun. 180: 1110-1117 (1991), and Graham, et al., Biochem. Biophys. Res. Commun. 177: 8-16 (1991). Heterologous expression and scale-up growth of MEL cells transfected with human tachykinin receptors was performed as described for NK2 receptors by Aharony, et al., Mol. Pharmacol. 45: 9-19, 1994.
(§3) Membranes from recombinant MEL cells expressing NK1 or NK2 receptors were prepared as described by Hopkins, et al., (1991). Briefly, cells were homogenized at 4° C. (Brinkman PT-20 Polytron, setting 3, with one 15 sec burst on ice), in a buffer consisting of 50 mM Tris-HCl (pH7.4), 5 mM KCl, 120 mM NaCl, 10 mM EDTA and containing several protease inhibitors (1 mM phenylmethylsulfonylfluoride; 0.1 mg/ml soybean trypsin inhibitor, and 1 mM iodoacetamide). The homogenate was centrifuged at 1200×g for 45 min at 4° C. to remove cell debris. The supernatant was centrifuged at 48,000×g for 45 min at 4° C. The pellet was resuspended with a glass-Teflon motorized homogenizer in 30 volumes of ice-cold 50 mM Tris-HCl (pH 7.4) buffer.
(§4) Ligand binding assays with [^3H]NKA in MEL cells expressing cloned NK2 receptors or [^3H]SP in MEL cells expressing cloned NK1 receptors, were conducted generally as described by Aharony, et al., Mol. Pharmacol. 45: 9-19, 1994, Aharony, et al., Neuropeptides 23: 121-130 (1992) and Aharony, et al., J. Pharmacol. Exp. Ther. 259: 146-155(1991). In brief, incubations were carried out in assay buffer containing membranes, test compounds, and [^3H] ligand (1.0-1.5 nM). In competition experiments, mixtures (0.315 mL) containing various concentrations of competing agents (agonists, antagonists, or vehicle), were incubated at 25° C. for 30 min., with or without 1 μM unlabeled homogenous ligand (NKA or SP), to define non-specific binding. Reactions were initiated by adding membranes (0.1-0.15 mg protein/final concentration) and were conducted in duplicate. Saturation and kinetic experiments were conducted in triplicate. Separation of receptor-bound and free ligand was accomplished by dilution with 1 mL of wash buffer (20 mM Tris-HCl, pH 7.5) followed immediately by vacuum filtration with a total volume of 10 mL of wash buffer (utilizing a Brandel Cell Harvester MB-48R with Whatman GF/B filters presoaked in 0.1% polyethylenimine).
(§5) The ability of compounds disclosed herein to inhibit the binding of [^3H] ligand is shown by the results disclosed in Table 1.

The target in a further experiment is T2, human NK2 receptors (Homo sapiens, UniProt P21452).
T2 construct: expressed in transfected cells; host or cells: MEL cells (murine erythroleukemia), membranes
T2 sequence (P21452 1-398): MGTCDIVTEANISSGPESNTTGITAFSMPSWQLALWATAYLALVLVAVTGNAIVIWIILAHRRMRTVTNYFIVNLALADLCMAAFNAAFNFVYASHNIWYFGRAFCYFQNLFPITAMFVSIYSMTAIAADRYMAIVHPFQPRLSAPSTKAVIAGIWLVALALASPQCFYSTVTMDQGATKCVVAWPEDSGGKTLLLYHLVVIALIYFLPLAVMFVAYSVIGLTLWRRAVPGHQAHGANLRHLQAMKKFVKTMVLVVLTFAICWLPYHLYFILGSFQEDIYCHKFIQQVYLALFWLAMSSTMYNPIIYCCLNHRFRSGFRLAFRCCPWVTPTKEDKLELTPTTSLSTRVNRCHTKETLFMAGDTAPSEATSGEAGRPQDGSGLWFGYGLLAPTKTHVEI
The experiment in a line: Receptor binding assay with [3H]NKA in membranes of MEL cells expressing cloned human NK2 receptors. The following applies: cloned hNK2 in MEL cell membranes; for Ki: read-out: hNK2 (Ki expressed as -Log Molar) (converted). The procedure:
as §1, §2, §3, §4, §5

Values joined by “and” are separate entries in the source; they are usually repeats but may differ in a detail not shown here. Equal entries are not always repeated.

T1 sequence (P25103 whole entry): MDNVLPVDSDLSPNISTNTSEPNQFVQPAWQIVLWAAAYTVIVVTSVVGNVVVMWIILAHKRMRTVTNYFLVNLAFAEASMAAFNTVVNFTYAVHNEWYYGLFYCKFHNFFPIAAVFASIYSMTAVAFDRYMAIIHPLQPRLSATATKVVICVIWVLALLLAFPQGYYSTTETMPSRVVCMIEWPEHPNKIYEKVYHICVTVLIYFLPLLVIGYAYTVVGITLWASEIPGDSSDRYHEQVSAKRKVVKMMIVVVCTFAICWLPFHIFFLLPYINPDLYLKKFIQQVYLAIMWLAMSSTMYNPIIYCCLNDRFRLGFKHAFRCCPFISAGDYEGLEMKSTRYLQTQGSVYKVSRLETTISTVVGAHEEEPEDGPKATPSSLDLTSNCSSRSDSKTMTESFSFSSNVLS

`CN(C[C@@H](CCN1CCC(N2CCCCC2=O)CC1)c1ccc(Cl)c(Cl)c1)C(=O)c1ccccc1F` [Example 1, (S)—N-[2-(3,4-Dichloro-phenyl)-4-(2-oxo-[1,4′]bipiperidinyl-1′-yl)-butyl]-2-fluoro-N-methyl-benzamide]: the “Inhibition of BANK-mediated GP bladder contraction (% Inhibition mediated by 52 nM/kg administered orally)” value in experiment [1] was 80% and 80 ± 6%. Also, the Ki (in general, the equilibrium dissociation constant of an inhibitor or competing ligand from its target) at human NK1 receptors is 91.2 nM; at human NK2 receptors it was 1.45 nM.
For `CN(C[C@@H](CCN1CCC(N2CCCCC2=S)CC1)c1ccc(Cl)c(Cl)c1)C(=O)c1ccccc1` [Example 2, (S)—N-[2-(3,4-Dichlorophenyl)-4-[4-(2-thio-piperidin-1-yl)piperidino]butyl]-N-methylbenzamide], in experiment [1], the “Inhibition of BANK-mediated GP bladder contraction (% Inhibition mediated by 52 nM/kg administered orally)” value is on record as 42 ± 13%. In addition, the “hNK1 (Ki expressed as -Log Molar)” value at human NK1 receptors is 7.22 -Log Molar. On human NK2 receptors, the “hNK2 (Ki expressed as -Log Molar)” value is given as 8.73 -Log Molar.
As to `CN(C[C@@H](CCN1CCC(N2CCCCC2=O)CC1)c1ccc(Cl)c(Cl)c1)C(=O)c1ccccc1` [Example 5, (S)—N-[2-(3,4-Dichlorophenyl)-4-[4-(2-oxo-piperidin-1-yl)piperidino]butyl]-N-methylbenzamide], the Ki is 427 nM at human NK1 receptors and 3.31 nM at human NK2 receptors.
On to `CCNC(=O)C1(N2CCCCC2=O)CCN(CC[C@H](CN(C)C(=O)c2ccccc2)c2ccc(Cl)c(Cl)c2)CC1` [Example 6], for which the “Inhibition of BANK-mediated GP bladder contraction (% Inhibition mediated by 52 nM/kg administered orally)” value in experiment [1] was −65 ± 58%. Besides, the inhibition (as a rule, the percentage by which the read-out fell short of the control) at 10 µM on human NK1 receptors (10 μM) was found to be 84%. In addition, the Ki at human NK2 receptors is 0.2 nM.
In the case of `CN(C[C@@H](CCN1CCC(N2CCCCC2=O)CC1)c1ccc(Cl)c(Cl)c1)C(=O)c1ccc(F)cc1` [Example 4, (S)—N-[2-(3,4-Dichlorophenyl)-4-[4-(2-oxo-piperidin-1-yl)piperidino]butyl]-N-methyl-4-fluorobenzamide], the “Inhibition of BANK-mediated GP bladder contraction (% Inhibition mediated by 52 nM/kg administered orally)” value in experiment [1] is listed as −28 ± 45%. The “increase in the bladder contraction induced by BANK” value in experiment [1] (guinea pig, as shown in Table 1 (52 nM/kg orally)) was determined as 28%.

These data come from patent US7368461B2 (AstraZeneca AB, priority 2001, dated 2008).
